We go through eight compounds from paper PMC1891437, “Hexose-6-phosphate Dehydrogenase Modulates 11β-Hydroxysteroid Dehydrogenase Type 1-Dependent Metabolism of 7-keto- and 7β-hydroxy-neurosteroids” (PLoS ONE, 2007).

Test [1] addresses T1, 11β-HSD1 (Homo sapiens, UniProt P28845).
T1 construct: expressed in transfected cells; host or cells: HEK-293 (transient, Ca2+-phosphate precipitation)
The test is described as follows: 11β-HSD1 reductase activity (reduction of cortisone) in lysates of HEK-293 cells expressing recombinant enzyme, competition by 7-oxygenated neurosteroids. The test is classed as biochemical. Conditions: HEK-293 lysates; 200 nM [3H]-cortisone, 500 µM NADPH; mean±S.D., four experiments. On the procedure:
(§1) HEK-293 cells were cultured in Dulbecco's Modified Eagle's Medium (DMEM) supplemented with 10% fetal calf serum (FCS), 50 units/ml penicillin, 50 µg/ml streptomycin and 2 mM glutamine. Cells were transfected with expression plasmids for FLAG-tagged 11β-HSD1 and myc-tagged H6PDH or pcDNA3.1 control using the Ca^2+-phosphate precipitation method. The epitope tags had no effect on enzymatic activities or expression levels of 11β-HSD1 and H6PDH [10], [49]. A total amount of 8 µg DNA was used per 10 cm culture dish or 2 µg DNA per well of a six-well culture plate.
(§2) The enzyme activity in intact cells was measured as described. Briefly, HEK-293 cells, grown in 10 cm culture dishes and transfected with FLAG-tagged 11β-HSD1 alone or co-transfected with myc-tagged H6PDH, were detached 24 h post-transfection and distributed in 96-well plates at a density of 30′000–40′000 cells per well. After 16 h, cells were incubated in serum- and steroid-free medium and the conversion of radiolabeled cortisone to cortisol (or the reverse activity) was determined upon incubation for 1 h at 37°C in a total volume of 50 µl containing 200 nM cortisone (or cortisol). The reaction was stopped by adding methanol containing 2 mM unlabeled cortisone and cortisol, followed by separation of steroids by TLC and scintillation counting. Measurements with freshly prepared cell lysates were carried out in the presence of [1,2,6,7-^3H]-cortisone and cofactor NADPH at final concentrations of 200 nM and 500 µM for the reductase reaction and with 50 nM [1,2,6,7-^3H]-cortisol and 500 µM cofactor NAD^+ for the dehydrogenase reaction, respectively, in the absence or presence of various concentrations of competing 7-oxygenated neurosteroid ligands. The concentration of dimethylsulfoxide or methanol from the solvent was 0.1% in all reactions and had no effect on enzyme activity. Data (mean±SD) were obtained from four independent experiments and were calculated using the Data Analysis Toolbox (Elsevier MDL, Allschwil, Switzerland).

For test [2], the target named is T1, 11β-HSD1. The test can be described thus: 11β-HSD1 dehydrogenase activity (oxidation of cortisol) in lysates of HEK-293 cells expressing recombinant enzyme, competition by 7-oxygenated neurosteroids. The class given is biochemical. Particulars: HEK-293 lysates; 50 nM [3H]-cortisol, 500 µM cofactor NAD+; mean±S.D., four experiments. The method, then:
as §1, §2

Test [3] deals with T1, 11β-HSD1. The test can be described thus: Steady state ratio of cortisone to cortisol in intact HEK-293 cells expressing 11β-HSD1. The class given is cell-based. Conditions: 16 h, 20 µM inhibitor. The method, then:
as §1, §2

A further test concerns the target T2, 11β-HSD1/H6PDH (Homo sapiens, UniProt P28845).
T2 construct: expressed in transfected cells; host or cells: HEK-293 (transient co-transfection, Ca2+-phosphate precipitation)
The test can be described thus: Steady state ratio of cortisone to cortisol in intact HEK-293 cells coexpressing 11β-HSD1 and H6PDH. Particulars: 11β-HSD1/H6PDH cells, 16 h, 20 µM inhibitor, n = 4. The class given is cell-based. The method, then: as §1
as §2, with “After 16 h, cells were incubated in serum- and steroid-free medium and the conversion of radiolabeled cortisone to cortisol (or the reverse activity) was determined upon incubation for 1 h at 37°C in a total volume of 50 µl containing 200 nM cortisone (or cortisol).” left out

The target in test [4] is T1, 11β-HSD1. The test is described as follows: 7-keto-steroid reductase and 7-hydroxy-steroid dehydrogenase activity in intact transfected HEK-293 cells (GC-MS). The class given is cell-based. Conditions: 1 µM inhibitor, intact HEK-293 cells. On the procedure: as §1
HEK-293 cells were seeded in six-well plates at a density of 900′000 cells per well. After 24 h, cells were transfected with expression vector for 11β-HSD1 or co-transfected with vectors for 11β-HSD1 and H6PDH. An empty pcDNA3.1 plasmid was used in transfections lacking H6PDH to adjust total DNA amounts in all samples. The medium was replaced 18 h post-transfection by steroid-free medium followed by addition of 1 µM of the steroid substrate to be tested. […] After incubation for various time intervals, reactions were terminated by addition of an equal volume of dichloromethane, containing 500 ng medroxyprogesterone as an internal standard. Since radiolabeled C7-oxygenated metabolites were not commercially available, we applied GC-MS for detection. […]

Where [5] appears, read: 11β-HSD1 cells, 200 nM radiolabeled cortisone, n = 4.

T1 sequence (P28845 whole entry): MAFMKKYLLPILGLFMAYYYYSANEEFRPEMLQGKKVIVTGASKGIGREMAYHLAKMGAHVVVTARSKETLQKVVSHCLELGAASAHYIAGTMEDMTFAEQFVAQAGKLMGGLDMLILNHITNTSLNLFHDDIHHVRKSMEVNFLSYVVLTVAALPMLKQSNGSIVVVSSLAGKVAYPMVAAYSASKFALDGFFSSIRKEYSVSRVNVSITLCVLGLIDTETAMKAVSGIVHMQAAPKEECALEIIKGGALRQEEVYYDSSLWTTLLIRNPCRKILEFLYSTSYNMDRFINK
T2 sequence (P28845 whole entry): as above

Consider `C[C@]12CC[C@H](O)C[C@@H]1CC(=O)[C@@H]1[C@@H]2CC[C@]2(C)C(=O)CC[C@@H]12` [5α-androstane-3β-ol-7,17dione, 5α-androstane-3β-ol-7,17-dione], for which the figures for the IC50 on 11β-HSD1 [1] and on 11β-HSD1 [2] were 0.5 ± 0.11 µM and 18 ± 1 µM, respectively.
As for `C[C@]12CC[C@H](O)CC1=CC(=O)[C@@H]1[C@@H]2CC[C@]2(C)C(=O)CC[C@@H]12` [7-ketodehydroepiandrosterone], the IC50 was 0.82 ± 0.07 µM at 11β-HSD1 [1] and 29 ± 5 µM on 11β-HSD1 [2].
In the same order, the values of `CC(=O)[C@H]1CC[C@H]2[C@@H]3C(=O)C=C4C[C@@H](O)CC[C@]4(C)[C@H]3CC[C@]12C` [7-ketopregnenolone] are 0.68 ± 0.11 µM and 5.4 ± 0.5 µM.
`C[C@]12CC[C@H](O)CC1=C[C@@H](O)[C@@H]1[C@@H]2CC[C@]2(C)C(=O)CC[C@@H]12` [7α-hydroxydehydroepiandrosterone]: the half-inhibitory concentration (IC50) at 11β-HSD1 [1] was 45 ± 2 µM; on 11β-HSD1 [2], 16 ± 1 µM.
`C[C@]12CC[C@H](O)CC1=C[C@H](O)[C@@H]1[C@@H]2CC[C@]2(C)C(=O)CC[C@@H]12` [7β-hydroxydehydroepiandrosterone]: the IC50 came to 7.7 ± 0.8 µM at 11β-HSD1 [1] and 0.54 ± 0.05 µM on 11β-HSD1 [2].
`CC(=O)[C@H]1CC[C@H]2[C@@H]3[C@@H](O)C=C4C[C@@H](O)CC[C@]4(C)[C@H]3CC[C@]12C` [7β-hydroxypregnenolone]: the IC50 was 2.4 ± 0.5 µM on 11β-HSD1 [1] and 1.34 ± 0.49 µM at 11β-HSD1 [2].
With `O=C1CC(c2ccccc2)Oc2ccccc21` (stereo not shown) [Flavanone, flavanone], at 11β-HSD1 [3] (11β-HSD1 cells, 200 nM radiolabeled cortisol, n = 4), the “cortisol, percentage of total glucocorticoid (oxidation of cortisol to cortisone)” value is reported as 61.2%. At 11β-HSD1 [3] (setting [5]), the “cortisol, percentage of total glucocorticoid (reduction of cortisone to cortisol)” value turned out to be 74.1% and the “cortisone, percentage of total glucocorticoid (reduction of cortisone to cortisol)” value amounted to 25.9%. The “effect of inhibitor on the steady state ratio of glucocorticoids” value at 11β-HSD1 [3] (HEK-293 cells with 11β-HSD1 alone or with H6PDH) was “little or no effect on the steady state ratio of glucocorticoids”. For the same compound, on 11β-HSD1/H6PDH (200 nM radiolabeled cortisol), the “cortisol, percentage of total glucocorticoid (oxidation of cortisol to cortisone)” value turned out to be 90.9% and the “cortisone, percentage of total glucocorticoid (oxidation of cortisol to cortisone)” value is given as 9.1%. In addition, on 11β-HSD1/H6PDH (200 nM radiolabeled cortisone), the “cortisol, percentage of total glucocorticoid (reduction of cortisone to cortisol)” value was 91.7% and the “cortisone, percentage of total glucocorticoid (reduction of cortisone to cortisol)” value was found to be 8.3%.
Consider `C1CCc2nnc(C34CC5CC(CC(C5)C3)C4)n2CC1` [T0504, 5H-1,2,4-triazolo(4,3-a)azepine,6,7,8,9-tetrahydro-3-tricyclo(3·3·1·13·7)dec-1-yl], for which the “effect of inhibitor on 11β-HSD1-dependent metabolism of 7α-hydroxy-DHEA” value at 11β-HSD1 [4] (1 µM 7α-hydroxy-DHEA substrate, 3 h) was “prevented the formation of 7β-hydroxy-DHEA and 7-keto-DHEA”. At 11β-HSD1 [4] (1 µM substrate, 3 h or 6 h), the “effect of inhibitor on 11β-HSD1-dependent metabolism of 7-ketopregnenolone and 5α-androstane-3β-ol-7,17-dione” value was “almost completely abolished”.

Usually IC50 stands for the concentration at which inhibition is half-maximal.
